In US7649092B2, “Urea derivatives as calcium channel blockers” (Neuromed Pharmaceuticals Ltd., priority 2004, dated 2010):
Where two headings read alike, the source gives them in different places.

What was measured:
[1] = target: T1, human DiG T-type channels (Homo sapiens, UniProt O43497); test: T-type calcium channel block, whole-cell patch clamp in HEK cell lines; assay type: cell-based
T1 construct: expressed in transfected cells
Procedure: Standard patch-clamp techniques were employed to identify blockers of T-type currents. Briefly, previously described HEK cell lines stably expressing human DiG T-type channels were used for all the recordings (passage #: 4-20, 37° C., 5% CO2). To obtain T-type currents, plastic dishes containing semi-confluent cells were positioned on the stage of a ZEISS AXIOVERT S100 microscope after replacing the culture medium with external solution (see below). Whole-cell patches were obtained using pipettes (borosilicate glass with filament, O.D.: 1.5 mm, I.D.: 0.86 mm, 10 cm length), fabricated on a SUTTER P-97 puller with resistance values of ˜5 MΩ (see below for internal solution).
In the non-inactivating protocol, the holding potential is set at −110 mV and with a pre-pulse at −100 mV for 1 second prior to the test pulse at −40 mV for 50 ms. […]
Test compounds were dissolved in external solution, 0.1-0.01% DMSO. After ˜10 min rest, they were applied by gravity close to the cell using a WPI microfil tubing. The “non-inactivated” pre-pulse was used to examine the resting block of a compound. The “inactivated” protocol was employed to study voltage-dependent block. However, the initial data shown below were mainly obtained using the non-inactivated protocol only. IC50 values are shown for various compounds of the invention in Table 5.

[2] = target: T2, rat brain N-type calcium channel subunits (α1B+α2δ+β1b cDNA subunits) (Rattus norvegicus, UniProt Q02294); test: N-type calcium channel block, whole cell patch clamp in HEK 293 cells; assay type: cell-based; details: holding potential −80 mV to +10 mV
T2 construct: expressed in transfected cells
Procedure: N-type calcium channel blocking activity was assayed in human embryonic kidney cells, HEK 293, stably transfected with the rat brain N-type calcium channel subunits (α1B+α2δ+β1b cDNA subunits). Alternatively, N-type calcium channels (α1B+α2δ+β1b cDNA subunits), L-type channels (α1C+α2δ+β1b cDNA subunits) and P/Q-type channels (α1A+α2δ+β1b cDNA subunits) were transiently expressed in HEK 293 cells. Briefly, cells were cultured in Dulbecco's modified eagle medium (DMEM) supplemented with 10% fetal bovine serum, 200 U/ml penicillin and 0.2 mg/ml streptomycin at 37° C. with 5% CO2. At 85% confluency cells were split with 0.25% trypsin/1 mM EDTA and plated at 10% confluency on glass coverslips. At 12 hours the medium was replaced and the cells transiently transfected using a standard calcium phosphate protocol and the appropriate calcium channel cDNA's. Fresh DMEM was supplied and the cells transferred to 28° C./5% CO2. Cells were incubated for 1 to 2 days prior to whole cell recording.
Whole cell patch clamp experiments were performed using an Axopatch 200B amplifier (Axon Instruments, Burlingame, Calif.) linked to a personal computer equipped with pCLAMP software. The external and internal recording solutions contained, respectively, 5 mM BaCl2, 10 mM MgCl2, 10 mM HEPES, 40 mM TEAC1, 10 mM glucose, 87.5 mM CsCl (pH 7.2) and 108 mM CsMS, 4 mM MgCl2, 9 mM EGTA, 9 mM HEPES (pH 7.2). Currents were typically elicited from a holding potential of −80 mV to +10 mV using Clampex software (Axon Instruments). Typically, currents were first elicited with low frequency stimulation (0.067 Hz) and allowed to stabilize prior to application of the compounds. The compounds were then applied during the low frequency pulse trains for two to three minutes to assess tonic block, and subsequently the pulse frequency was increased to 0.2 Hz to assess frequency dependent block. Data were analyzed using Clampfit (Axon Instruments) and SigmaPlot 4.0 (Jandel Scientific).

rat formalin model = test: Formalin-induced pain model (paw flinches); assay type: in vivo; details: 30 mg/kg IP, 10 min before formalin, ±SEM, saline control=100%
Procedure: The effects of intrathecally delivered compounds of the invention on the rat formalin model were measured. The compounds were reconstituted to stock solutions of approximately 10 mg/ml in propylene glycol. Eight Holtzman male rats of 275-375 g size were randomly selected per test article.
The following study groups were used, with test article, vehicle control (propylene glycol) and saline delivered intraperitoneally (IP):
Prior to initiation of drug delivery baseline behavioral and testing data were taken.
On the morning of testing, a small metal band (0.5 g) was loosely placed around the right hind paw. The rat was placed in a cylindrical Plexiglas chamber for adaptation a minimum of 30 minutes. Test Article or Vehicle Control Article was administered 10 minutes prior to formalin injection (50 μl of 5% formalin) into the dorsal surface of the right hind paw of the rat. The animal was then placed into the chamber of the automated formalin apparatus where movement of the formalin injected paw was monitored and the number of paw flinches tallied by minute over the next 60 minutes (Malmberg, A. B., et al., Anesthesiology (1993) 79:270-281).
Results are presented as Maximum Possible Effect ±SEM, where saline control=100%.

[3] = inactivation protocol, @ −80 mV, read-out: IC50 @ −80 mV
[4] = non-inactivating protocol, pre-pulse −100 mV, test pulse −40 mV, read-out: IC50 @ −100 mV
[5] = low frequency stimulation 0.067 Hz (tonic block), read-out: IC50 @ 0.067 Hz
[6] = pulse frequency 0.2 Hz (frequency dependent block), read-out: IC50 @ 0.2 Hz

T1 sequence (O43497 whole entry): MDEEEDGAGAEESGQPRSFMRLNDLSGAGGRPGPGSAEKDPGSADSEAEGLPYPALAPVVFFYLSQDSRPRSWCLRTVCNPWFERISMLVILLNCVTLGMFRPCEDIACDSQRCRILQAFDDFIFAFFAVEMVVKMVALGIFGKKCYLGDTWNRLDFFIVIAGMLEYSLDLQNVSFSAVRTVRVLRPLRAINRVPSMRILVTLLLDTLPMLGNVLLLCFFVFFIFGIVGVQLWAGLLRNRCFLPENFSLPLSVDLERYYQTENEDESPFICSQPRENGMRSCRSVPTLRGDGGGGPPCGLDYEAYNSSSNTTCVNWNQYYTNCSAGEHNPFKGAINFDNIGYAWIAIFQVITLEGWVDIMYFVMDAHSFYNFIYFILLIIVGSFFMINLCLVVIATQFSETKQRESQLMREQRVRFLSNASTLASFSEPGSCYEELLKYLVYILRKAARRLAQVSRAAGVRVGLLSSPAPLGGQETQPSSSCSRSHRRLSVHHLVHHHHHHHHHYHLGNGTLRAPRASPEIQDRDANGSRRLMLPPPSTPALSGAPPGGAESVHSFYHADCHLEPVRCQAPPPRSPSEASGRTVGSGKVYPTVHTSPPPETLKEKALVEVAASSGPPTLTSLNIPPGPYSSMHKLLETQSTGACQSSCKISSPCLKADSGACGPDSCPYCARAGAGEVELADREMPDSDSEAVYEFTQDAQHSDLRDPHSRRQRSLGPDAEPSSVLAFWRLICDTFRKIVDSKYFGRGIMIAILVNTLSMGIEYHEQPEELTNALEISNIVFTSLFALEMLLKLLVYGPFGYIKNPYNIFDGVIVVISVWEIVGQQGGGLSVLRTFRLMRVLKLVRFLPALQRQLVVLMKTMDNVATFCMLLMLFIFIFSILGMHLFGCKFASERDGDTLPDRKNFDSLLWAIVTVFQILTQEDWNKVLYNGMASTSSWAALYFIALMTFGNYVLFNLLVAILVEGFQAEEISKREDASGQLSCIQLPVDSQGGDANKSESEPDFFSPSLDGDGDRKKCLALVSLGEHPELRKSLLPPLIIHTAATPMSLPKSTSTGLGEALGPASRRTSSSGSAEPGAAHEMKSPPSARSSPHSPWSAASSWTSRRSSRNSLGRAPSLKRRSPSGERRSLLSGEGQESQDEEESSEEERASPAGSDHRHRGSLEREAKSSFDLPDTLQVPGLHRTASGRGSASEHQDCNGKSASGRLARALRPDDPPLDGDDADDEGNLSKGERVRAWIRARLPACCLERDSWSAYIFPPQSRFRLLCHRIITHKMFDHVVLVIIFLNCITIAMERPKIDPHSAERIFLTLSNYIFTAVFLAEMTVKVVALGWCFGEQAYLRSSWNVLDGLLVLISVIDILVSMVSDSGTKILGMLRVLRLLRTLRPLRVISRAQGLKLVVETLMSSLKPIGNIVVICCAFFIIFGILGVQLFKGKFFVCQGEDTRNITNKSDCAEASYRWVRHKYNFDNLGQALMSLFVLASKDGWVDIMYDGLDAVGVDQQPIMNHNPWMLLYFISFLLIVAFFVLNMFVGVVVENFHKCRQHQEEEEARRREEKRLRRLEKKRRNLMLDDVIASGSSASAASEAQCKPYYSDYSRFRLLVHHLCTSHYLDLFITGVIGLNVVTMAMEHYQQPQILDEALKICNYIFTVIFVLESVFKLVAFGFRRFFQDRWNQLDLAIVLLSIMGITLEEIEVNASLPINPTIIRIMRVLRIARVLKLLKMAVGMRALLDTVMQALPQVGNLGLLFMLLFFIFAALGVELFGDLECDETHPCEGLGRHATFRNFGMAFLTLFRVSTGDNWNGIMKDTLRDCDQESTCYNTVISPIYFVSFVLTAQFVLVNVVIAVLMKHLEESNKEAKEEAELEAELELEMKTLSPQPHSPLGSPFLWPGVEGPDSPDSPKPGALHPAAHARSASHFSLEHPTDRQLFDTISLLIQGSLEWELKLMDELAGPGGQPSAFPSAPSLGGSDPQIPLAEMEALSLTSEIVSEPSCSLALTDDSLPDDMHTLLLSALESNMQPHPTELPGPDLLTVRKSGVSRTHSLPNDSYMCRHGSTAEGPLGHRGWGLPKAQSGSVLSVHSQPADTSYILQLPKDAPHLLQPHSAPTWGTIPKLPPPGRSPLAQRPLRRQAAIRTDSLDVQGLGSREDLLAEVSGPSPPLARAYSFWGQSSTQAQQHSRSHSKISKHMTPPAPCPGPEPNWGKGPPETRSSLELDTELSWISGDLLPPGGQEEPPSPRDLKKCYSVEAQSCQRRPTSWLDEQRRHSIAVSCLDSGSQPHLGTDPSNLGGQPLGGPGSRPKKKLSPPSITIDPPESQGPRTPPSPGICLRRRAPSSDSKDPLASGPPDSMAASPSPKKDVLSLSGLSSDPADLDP

Compound | IC50 [1, 3] [nM] | IC50 [1, 4] [nM] | IC50 [2, 5] [nM] | IC50 [2, 6] [nM] | Phase I (% MPE) (rat formalin model) | Phase II Total (% MPE) (rat formalin model) | Phase IIA (% MPE) (rat formalin model) | Phase IIB (% MPE) (rat formalin model)
O=C(NC(c1ccccc1)c1ccccc1)N1CCN(C(c2ccccc2)c2ccc(Cl)cc2Cl)CC1 (stereo not drawn) [Compound 2, 4-[(2,4-Dichloro-phenyl)-phenyl-methyl]-piperazine-1-carboxylic acid benzhydryl-amide] | 66 | 221 | 1480 | 1480 |  |  |  | 
O=C(NC(c1ccccc1)c1ccccc1)N1CCN(C(c2ccccc2)c2cccc(Cl)c2)CC1 (stereo not drawn) [Compound 5, 4-[(3-Chloro-phenyl)-phenyl-methyl]-piperazine-1-carboxylic acid benzhydryl-amide] | 53 | 242 | 390 | 340 | 54 ± 11 | 65 ± 10 | 52 ± 10 | 105 ± 13
O=C(NC(c1ccccc1)c1ccccc1)N1CCN(C(c2ccccc2)c2ccccc2Cl)CC1 (stereo not drawn) [Compound 6, 4-[(2-Chloro-phenyl)-phenyl-methyl]-piperazine-1-carboxylic acid benzhydryl-amide] | 47 | 147 | 280 | 180 | 53 ± 10 | 71 ± 7 | 63 ± 9 | 99 ± 5
CN1CCC(CN2CCN(C(=O)NC(c3ccccc3)c3ccccc3)CC2)CC1 [Compound 10, 4-(1-Methyl-piperidin-4-yl-methyl)-piperazine-1-carboxylic acid benzhydryl-amide] | 20000 | 20000 | 260 | 260 |  |  |  | 
CN1CCCC(C(c2ccccc2)N2CCN(C(=O)NC(c3ccccc3)c3ccccc3)CC2)C1 (stereo not drawn) [Compound 22, 4-[(1-Methyl-piperidin-3-yl)-phenyl-methyl]-piperazine-1-carboxylic acid benzhydryl-amide] |  |  | 6300 | 2150 |  |  |  | 
CN1CCC(C(c2ccc(Cl)cc2)N2CCN(C(=O)NC(c3ccccc3)c3ccccc3)CC2)CC1 (stereo not drawn) [Compound 24, 4-[(1-Methyl-piperidin-4-yl)-(4-chloro-phenyl)-methyl]-piperazine-1-carboxylic acid benzhydryl-amide] |  |  | 4310 | 2460 |  |  |  | 
CN1CCC[C@H]1CN1CCN(C(=O)NC(c2ccccc2)c2ccccc2)CC1 [Compound 25] |  |  | > 5900 |  |  |  |  | 
CN(C(=O)N1CCN(CCN2CCCC2)CC1)C(c1ccccc1)c1ccccc1 [Compound 32, 4-(2-pyrrolidin-1-ylethyl)-piperazine-1-carboxylic acid benzhydryl-methyl-amide] | > 6720 | > 23000 | > 20000 | > 8800 |  |  |  | 
O=C(NC(c1ccccc1)c1ccccc1)N1CCN(C(c2ccccc2)C2CCNCC2)CC1 (stereo not drawn) [Compound 35, 4-[Piperidin-4-yl-phenyl-methyl]-piperazine-1-carboxylic acid benzhydryl-amide] |  | 663 | 3470 | 2160 |  |  |  | 
CN1CCC(C(c2ccccc2Cl)N2CCN(C(=O)NC(c3ccccc3)c3ccccc3)CC2)CC1 (stereo not drawn) [Compound 37, 4-[(1-Methyl-piperidin-4-yl)-(2-chloro-phenyl)-methyl]-piperazine-1-carboxylic acid benzhydryl-amide] |  |  | 1330 | 910 |  |  |  | 
CN1CCC(C(c2cccc(Cl)c2)N2CCN(C(=O)NC(c3ccccc3)c3ccccc3)CC2)CC1 (stereo not drawn) [Compound 38, 4-[(1-Methyl-piperidin-4-yl)-(3-chloro-phenyl)-methyl]-piperazine-1-carboxylic acid benzhydryl-amide] |  |  | 3310 | 1560 |  |  |  | 
CN(C(=O)N1CCN(C(c2ccccc2)c2ccccc2)CC1)C(c1ccccc1)c1ccccc1 [Compound 39, 4-(Diphenyl-methyl)-piperazine-1-carboxylic acid benzhydryl-methyl-amide] |  |  | 660 | 310 |  |  |  | 

Now from value to compound, other results behind:

IC50 [1, 3] [nM] | IC50 [1, 4] [nM] | IC50 [2, 5] [nM] | IC50 [2, 6] [nM] | Compound | Phase I (% MPE) (rat formalin model) | Phase II Total (% MPE) (rat formalin model) | Phase IIA (% MPE) (rat formalin model) | Phase IIB (% MPE) (rat formalin model)
28 | 75 | 2710 | 2710 | Cc1ccc(C(c2ccccc2)N2CCN(C(=O)NC(c3ccccc3)c3ccccc3)CC2)c(C)c1 (stereo not drawn) [Compound 3] |  |  |  | 
56 | 171 | 290 | 280 | O=C(NC(c1ccccc1)c1ccccc1)N1CCN(C(c2ccccc2)c2ccc(Cl)cc2)CC1 (stereo not drawn) [Compound 4, 4-[(4-Chloro-phenyl)-phenyl-methyl]-piperazine-1-carboxylic acid benzhydryl-amide] | 71 ± 15 | 74 ± 11 | 70 ± 13 | 88 ± 9
324 | 4200 | 230 | 200 | O=C(NC(c1ccccc1)c1ccccc1)N1CCN(C(c2ccccc2)c2cccc(Cl)c2Cl)CC1 (stereo not drawn) [Compound 7, 4-[(2,3-Dichloro-phenyl)-phenyl-methyl]-piperazine-1-carboxylic acid benzhydryl-amide] | 61 ± 6 | 71 ± 7 | 63 ± 9 | 85 ± 20
 |  | 2170 | 990 | CN(C)CCCN1CCN(C(=O)NC(c2ccccc2)c2ccccc2)CC1 [Compound 11, 4-(3-Dimethylamino-propyl)-piperazine-1-carboxylic acid benzhydryl-amide] | 59 ± 13 | 60 ± 12 | 50 ± 14 | 94 ± 22
 |  | 1700 | 490 | CN1CCCC(CN2CCN(C(=O)NC(c3ccccc3)c3ccccc3)CC2)C1 (stereo not drawn) [Compound 12, 4-(1-Methyl-piperidin-3-ylmethyl)-piperazine-1-carboxylic acid benzhydryl-amide] |  |  |  | 
3400 | 5100 |  |  | CN1CCC(C(c2ccccc2)N2CCN(C(=O)NC(c3ccccc3)c3ccccc3)CC2)CC1 (stereo not drawn) [Compound 20, 4-[(1-Methyl-piperidin-4-yl)-phenyl-methyl]-piperazine-1-carboxylic acid benzhydryl-amide] |  |  |  | 
2000 | 15000 | 1000 | 1000 | O=C(NC(c1ccccc1)c1ccccc1)N1CCN(CCN2CCCC2)CC1 [Compound 21] |  |  |  | 
1300 | 1900 |  |  | Cc1ccc(C(C2CCN(C)CC2)N2CCN(C(=O)NC(c3ccccc3)c3ccccc3)CC2)c(C)c1 (stereo not drawn) [Compound 36, 4-[(1-Methyl-piperidin-4-yl)-(2,4-dimethyl-phenyl)-methyl]-piperazine-1-carboxylic acid benzhydryl-amide] |  |  |  | 
